# Laboratory results taken from patent publication US6951848B2, “Functionalized heterocycles as modulators of chemokine receptor function and methods of use therefor” (Millennium Pharmaceuticals, Inc.,, priority 2001, dated 2005).
# Legend:
# CCR-5 = biological target: T1, CCR-5 (Homo sapiens, UniProt P51681); experiment: 125I-gp120/sCD4/CCR-5 receptor binding assay; settings: membranes from CCR-5/L 1.2 cells, 3 nM sCD4, 0.1 nM 125I-gp120 (HIV-1 JR-FL); read-out: IC50 for inhibition of binding of sCD-4/GP-120 to CCR-5
# T1 construct: expressed in transfected cells; host or cells: L1.2 cells (CCR-5/L1.2 transfectants), membranes
# Protocol: CCR-5 Receptor Binding Assay The compounds of the present invention were evaluated using the following CCR-5 receptor binding assay. The ^125I-gp120/sCD4/CCR-5 binding assay was carried out similarly as described in Wu et al., Nature, 1996;384:179-183. Briefly, the envelope gp120 protein derived from HIV-1 JR-FL (Trkola et al., Nature, 1996;384:184-186), an M-tropic strain, was iodinated using solid phase lactoperoxidase to a specific activity of 20 μCi/μg. For each binding reaction (in a final volume of 100 μL binding buffer [50 mM HEPES, pH 7.5, 1 mM CaCl2, 5 mM MgCl2, and 0.5% BSA]), 25 μL (2.5 μg) of membranes prepared from CCR-5/L 1.2 cells were mixed with 25 μL (3 nM) sCD4, followed by 25 μL (0.1 nM) radio-labeled gp120 in the presence or absence of 25 μL compound dissolved in DMSO (final concentration of DMSO 0.5%). The reactions were incubated at room temperature for 45 to 60 minutes and stopped by transferring the mixture to GFB filter plates, which were then washed 3 to 4 times with binding buffer containing 0.5 M NaCl. The plates were dried and MicroScint scintillation fluid was added before counting. […] The compounds of Examples 56 and 66 had IC50s of about […]. […] Preferred compounds can inhibit the binding of sCD-4/GP-120 to CCR-5 with IC50s of about 10 μM to about 100 μM or about 1 nM to about 10 μM
# T1 sequence (P51681 whole entry): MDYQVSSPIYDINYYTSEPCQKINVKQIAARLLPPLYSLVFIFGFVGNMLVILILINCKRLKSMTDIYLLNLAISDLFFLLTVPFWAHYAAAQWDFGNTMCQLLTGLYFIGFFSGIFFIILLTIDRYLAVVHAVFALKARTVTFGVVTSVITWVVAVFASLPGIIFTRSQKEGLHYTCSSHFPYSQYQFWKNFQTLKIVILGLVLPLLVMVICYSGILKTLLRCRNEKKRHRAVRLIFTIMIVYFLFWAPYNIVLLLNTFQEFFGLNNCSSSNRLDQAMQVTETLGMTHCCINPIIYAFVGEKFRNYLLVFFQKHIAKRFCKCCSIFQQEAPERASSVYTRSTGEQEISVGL
structure (smiles),measurement,setting,value
"Cc1[nH]c2ccc(OCCN3CCC(c4ccccc4)C3)cc2c1C(=O)OCc1ccccc1.Cl (centres unmarked) [Example 5, 1-[2-(3-benzyloxycarbonyl-2-methyl-1H-indol-5-yloxy)-ethyl]-3-phenyl-pyrrolidinium; Chloride]",IC50,CCR-5,18 µM
same,melting point,,118 to 121 °C
